# Assay results: patent US8192962B2, “Processes for detecting toxic substances” (Daikin Industries, Ltd., priority 2001, dated 2012)
# Tested on: Metabolism protein genes
# Test: DNA chip mRNA expression in yeast, metabolism protein genes (Table 7)
# Format: cell-based, Saccharomyces cerevisiae S288C
# Protocol: Yeast (Saccharomyces cerevisiae S288C (α SUC2mal mel gap2 CUP1)) were incubated at 25° C. on YPD medium (yeast extract 1%, polypepton 2%, glucose 2%). One of toxic chemical substances was added to the cells at logarithmic growth phase, and the cells were further incubated for two hours. Cells were cultured without any chemical substance in the same condition, and were used as control. Concentrations of the chemical substances were defined to inhibit the growth of the yeast but not lead to death.
# After completion of the incubation, the culture was centrifuged to collect the cells. To the cells, sodium acetate buffer (50 mM sodium acetate, 10 mM EDTA, 1% SDS) was added, and the mixture was shaken at 65° C. for five minutes, followed by returning to room temperature, and obtaining the supernatant, of which the procedures were repeated two times. To the supernatant, ½ amount of a solution of phenol/chloroform was added, and the mixture was centrifuged to give a supernatant, which was added with an equal amount of chloroform, and the mixture was centrifuged to give a supernatant. To the supernatant, an equal amount of isopropanol containing 0.3 M sodium acetate was added, and the mixture was allowed to stand at room temperature for 30 minutes, after which the mixture was centrifuged to give a sediment of the whole RNAs. Seventy % ethanol was added to the sediment, and the mixture was again centrifuged to give a sediment, which was then dried and dissolved in water. mRNA was isolated from the whole RNAs as followings. In view of the fact that a poly A chain is attached to the 3′ terminus of mRNA, a polynucleotide having a poly T structure which was immobilized on the surface of latex beads was used to trap the mRNA, and then the mRNA was washed and eluted with spine column (Oligotex-dT30<Super>mRNA Purification Kit, Takara). Reverse transcription of the mRNA was conducted with a reverse transcriptase (Super Script II Reverse Transcriptase; catalogue No. 18064-014, GibcoBRL) using fluorescence-labeled nucleotides to give cDNAs that were introduced with Cy3-dUTP or Cy5-dUTP during the reverse transcription.
# The labeled cDNAs were dissolved in TE buffer (10mM Tris-HCl/1 mM EDTA, pH8.0), and the solution was dropped on the DNA chip containing the whole genes of yeast (DNA Chip Research Inc. Japan) so that the cDNAs were hybridized on the DNA chip at 65° C. for over 12 hours. The fluoresces intensity of the DNA chip was read with a scanner, and the ratio relative to the fluorescence intensity resulting from the absence of chemical substance was estimated as the following, which is shown in Tables 1 to 9: […]
smiles,measurement,setting,value
"O=[N+]([O-])c1cc[n+]([O-])c2ccccc12 [(5), 4-nitroquinolin-N-oxide]",The level of expressed mRNA in the presence of chemical substance/The level of expressed mRNA in the absence of chemical substance,yeast gene YJR148W,0.6
same,The level of expressed mRNA in the presence of chemical substance/The level of expressed mRNA in the absence of chemical substance,yeast gene YJR155W,0.7
same,The level of expressed mRNA in the presence of chemical substance/The level of expressed mRNA in the absence of chemical substance,yeast gene YKL035W,0.8
same,level of expressed mRNA in the presence/in the absence of chemical substance,yeast gene YKL060C,1.6
same,The level of expressed mRNA in the presence of chemical substance/The level of expressed mRNA in the absence of chemical substance,yeast gene YKL091C,1.0
same,The level of expressed mRNA in the presence of chemical substance/The level of expressed mRNA in the absence of chemical substance,yeast gene YKL104C,1.4
same,level of expressed mRNA in the presence/in the absence of chemical substance,yeast gene YKL148C,0.8
same,The level of expressed mRNA in the presence of chemical substance/The level of expressed mRNA in the absence of chemical substance,yeast gene YKL152C,1.3
same,level of expressed mRNA in the presence/in the absence of chemical substance,yeast gene YKL157W,1.5
same,The level of expressed mRNA in the presence of chemical substance/The level of expressed mRNA in the absence of chemical substance,yeast gene YKL213C,0.7
same,The level of expressed mRNA in the presence of chemical substance/The level of expressed mRNA in the absence of chemical substance,yeast gene YKL215C,1.0
same,level of expressed mRNA in the presence/in the absence of chemical substance,yeast gene YKR034W,0.9
same,The level of expressed mRNA in the presence of chemical substance/The level of expressed mRNA in the absence of chemical substance,yeast gene YKR039W,1.0
same,The level of expressed mRNA in the presence of chemical substance/The level of expressed mRNA in the absence of chemical substance,yeast gene YLL058W,0.8
same,level of expressed mRNA in the presence/in the absence of chemical substance,yeast gene YLR006C,1.6
same,level of expressed mRNA in the presence/in the absence of chemical substance,yeast gene YLR044C,1.7
same,level of expressed mRNA in the presence/in the absence of chemical substance,yeast gene YLR056W,1.6
same,level of expressed mRNA in the presence/in the absence of chemical substance,yeast gene YLR058C,0.7
same,level of expressed mRNA in the presence/in the absence of chemical substance,yeast gene YLR081W,1.0
same,level of expressed mRNA in the presence/in the absence of chemical substance,yeast gene YLR089C,0.8
same,The level of expressed mRNA in the presence of chemical substance/The level of expressed mRNA in the absence of chemical substance,yeast gene YLR180W,0.8
same,level of expressed mRNA in the presence/in the absence of chemical substance,yeast gene YLR284C,1.6
same,The level of expressed mRNA in the presence of chemical substance/The level of expressed mRNA in the absence of chemical substance,yeast gene YLR299W,0.6
same,The level of expressed mRNA in the presence of chemical substance/The level of expressed mRNA in the absence of chemical substance,yeast gene YLR300W,0.8
same,level of expressed mRNA in the presence/in the absence of chemical substance,yeast gene YLR304C,0.6
same,The level of expressed mRNA in the presence of chemical substance/The level of expressed mRNA in the absence of chemical substance,yeast gene YLR307W,1.4
same,The level of expressed mRNA in the presence of chemical substance/The level of expressed mRNA in the absence of chemical substance,yeast gene YLR348C,0.9
same,level of expressed mRNA in the presence/in the absence of chemical substance,yeast gene YLR354C,1.6
same,level of expressed mRNA in the presence/in the absence of chemical substance,yeast gene YLR372W,1.4
same,level of expressed mRNA in the presence/in the absence of chemical substance,yeast gene YML022W,1.3
same,The level of expressed mRNA in the presence of chemical substance/The level of expressed mRNA in the absence of chemical substance,yeast gene YML054C,1.3
same,The level of expressed mRNA in the presence of chemical substance/The level of expressed mRNA in the absence of chemical substance,yeast gene YML070W,1.4
same,The level of expressed mRNA in the presence of chemical substance/The level of expressed mRNA in the absence of chemical substance,yeast gene YML100W,0.9
same,The level of expressed mRNA in the presence of chemical substance/The level of expressed mRNA in the absence of chemical substance,yeast gene YMR008C,1.1
same,level of expressed mRNA in the presence/in the absence of chemical substance,yeast gene YMR011W,0.9
same,level of expressed mRNA in the presence/in the absence of chemical substance,yeast gene YMR015C,1.7
same,The level of expressed mRNA in the presence of chemical substance/The level of expressed mRNA in the absence of chemical substance,yeast gene YMR020W,1.4
same,level of expressed mRNA in the presence/in the absence of chemical substance,yeast gene YMR083W,1.5
same,The level of expressed mRNA in the presence of chemical substance/The level of expressed mRNA in the absence of chemical substance,yeast gene YMR105C,0.9
same,The level of expressed mRNA in the presence of chemical substance/The level of expressed mRNA in the absence of chemical substance,yeast gene YMR189W,0.4
same,level of expressed mRNA in the presence/in the absence of chemical substance,yeast gene YMR205C,1.2
same,level of expressed mRNA in the presence/in the absence of chemical substance,yeast gene YMR261C,0.9
same,The level of expressed mRNA in the presence of chemical substance/The level of expressed mRNA in the absence of chemical substance,yeast gene YMR271C,1.1
same,The level of expressed mRNA in the presence of chemical substance/The level of expressed mRNA in the absence of chemical substance,yeast gene YMR296C,0.4
same,level of expressed mRNA in the presence/in the absence of chemical substance,yeast gene YMR323W,0.7
same,The level of expressed mRNA in the presence of chemical substance/The level of expressed mRNA in the absence of chemical substance,yeast gene YNL012W,1.3
same,level of expressed mRNA in the presence/in the absence of chemical substance,yeast gene YNL025C,0.7
same,The level of expressed mRNA in the presence of chemical substance/The level of expressed mRNA in the absence of chemical substance,yeast gene YNL037C,1.7
same,The level of expressed mRNA in the presence of chemical substance/The level of expressed mRNA in the absence of chemical substance,yeast gene YNL045W,1.1
same,The level of expressed mRNA in the presence of chemical substance/The level of expressed mRNA in the absence of chemical substance,yeast gene YNL104C,0.8
same,The level of expressed mRNA in the presence of chemical substance/The level of expressed mRNA in the absence of chemical substance,yeast gene YNL106C,0.8
same,The level of expressed mRNA in the presence of chemical substance/The level of expressed mRNA in the absence of chemical substance,yeast gene YNL169C,0.7
same,level of expressed mRNA in the presence/in the absence of chemical substance,yeast gene YNL192W,0.9
same,The level of expressed mRNA in the presence of chemical substance/The level of expressed mRNA in the absence of chemical substance,yeast gene YNL231C,2.1
same,The level of expressed mRNA in the presence of chemical substance/The level of expressed mRNA in the absence of chemical substance,yeast gene YNL322C,1.4
same,The level of expressed mRNA in the presence of chemical substance/The level of expressed mRNA in the absence of chemical substance,yeast gene YNL331C,1.6
same,The level of expressed mRNA in the presence of chemical substance/The level of expressed mRNA in the absence of chemical substance,yeast gene YNL332W,1.6
same,The level of expressed mRNA in the presence of chemical substance/The level of expressed mRNA in the absence of chemical substance,yeast gene YNR002C,1.2
same,The level of expressed mRNA in the presence of chemical substance/The level of expressed mRNA in the absence of chemical substance,yeast gene YNR019W,0.8
same,The level of expressed mRNA in the presence of chemical substance/The level of expressed mRNA in the absence of chemical substance,yeast gene YNR033W,1.3
same,The level of expressed mRNA in the presence of chemical substance/The level of expressed mRNA in the absence of chemical substance,yeast gene YNR059W,1.4
same,The level of expressed mRNA in the presence of chemical substance/The level of expressed mRNA in the absence of chemical substance,yeast gene YOL058W,1.2
same,level of expressed mRNA in the presence/in the absence of chemical substance,yeast gene YOL086C,1.9
same,level of expressed mRNA in the presence/in the absence of chemical substance,yeast gene YOL108C,2.1
same,level of expressed mRNA in the presence/in the absence of chemical substance,yeast gene YOL116W,1.7
same,The level of expressed mRNA in the presence of chemical substance/The level of expressed mRNA in the absence of chemical substance,yeast gene YOL126C,0.7
same,The level of expressed mRNA in the presence of chemical substance/The level of expressed mRNA in the absence of chemical substance,yeast gene YOL153C,1.2
same,level of expressed mRNA in the presence/in the absence of chemical substance,yeast gene YOL156W,1.2
same,The level of expressed mRNA in the presence of chemical substance/The level of expressed mRNA in the absence of chemical substance,yeast gene YOL165C,0.9
same,level of expressed mRNA in the presence/in the absence of chemical substance,yeast gene YOR002W,1.1
same,level of expressed mRNA in the presence/in the absence of chemical substance,yeast gene YOR085W,1.0
same,The level of expressed mRNA in the presence of chemical substance/The level of expressed mRNA in the absence of chemical substance,yeast gene YOR099W,1.5
same,level of expressed mRNA in the presence/in the absence of chemical substance,yeast gene YOR103C,1.5
same,level of expressed mRNA in the presence/in the absence of chemical substance,yeast gene YOR108W,1.1
same,level of expressed mRNA in the presence/in the absence of chemical substance,yeast gene YOR128C,1.1
same,The level of expressed mRNA in the presence of chemical substance/The level of expressed mRNA in the absence of chemical substance,yeast gene YOR130C,1.8
same,level of expressed mRNA in the presence/in the absence of chemical substance,yeast gene YOR142W,1.4
same,level of expressed mRNA in the presence/in the absence of chemical substance,yeast gene YOR176W,1.0
same,level of expressed mRNA in the presence/in the absence of chemical substance,yeast gene YOR178C,1.0
same,level of expressed mRNA in the presence/in the absence of chemical substance,yeast gene YOR251C,0.8
same,The level of expressed mRNA in the presence of chemical substance/The level of expressed mRNA in the absence of chemical substance,yeast gene YOR336W,1.3
same,The level of expressed mRNA in the presence of chemical substance/The level of expressed mRNA in the absence of chemical substance,yeast gene YOR347C,0.7
same,level of expressed mRNA in the presence/in the absence of chemical substance,yeast gene YOR348C,0.9
same,The level of expressed mRNA in the presence of chemical substance/The level of expressed mRNA in the absence of chemical substance,yeast gene YPL017C,1.3
same,level of expressed mRNA in the presence/in the absence of chemical substance,yeast gene YPL028W,1.0
same,level of expressed mRNA in the presence/in the absence of chemical substance,yeast gene YPL057C,1.9
same,level of expressed mRNA in the presence/in the absence of chemical substance,yeast gene YPL135W,1.6
same,level of expressed mRNA in the presence/in the absence of chemical substance,yeast gene YPL148C,1.1
same,The level of expressed mRNA in the presence of chemical substance/The level of expressed mRNA in the absence of chemical substance,yeast gene YPR026W,0.8
same,level of expressed mRNA in the presence/in the absence of chemical substance,yeast gene YPR113W,2.0
same,level of expressed mRNA in the presence/in the absence of chemical substance,yeast gene YPR165W,1.5
same,The level of expressed mRNA in the presence of chemical substance/The level of expressed mRNA in the absence of chemical substance,yeast gene YPR167C,1.4
same,level of expressed mRNA in the presence/in the absence of chemical substance,yeast gene YPR183W,0.9
